# Test results from patent publication US8877683B2, “Substituted pyridines having herbicidal activity” (BASF SE, priority 2010, dated 2014).
# Columns and labels:
# Test in all cases: greenhouse post-emergence herbicidal test
# Format in all cases: in vivo
# Details in all cases: application rate 0.25 kg/ha
# AVEFA (Avena fatua) = tested on: AVEFA (Avena fatua)
# From the text: (§1) The culture containers used were plastic flowerpots containing loamy sand with approximately 3.0% of humus as the substrate. The seeds of the test plants were sown separately for each species.
# (§2) For the post-emergence treatment, the test plants were first grown to a height of 3 to 15 cm, depending on the plant habit, and only then treated with the active ingredients which had been suspended or emulsified in water. For this purpose, the test plants were either sown directly and grown in the same containers, or they were first grown separately as seedlings and transplanted into the test containers a few days prior to treatment.
# (§3) Depending on the species, the plants were kept at 10-25° C. or 20-35° C. The test period extended over 2 to 4 weeks. During this time, the plants were tended, and their response to the individual treatments was evaluated.
# (§4) Evaluation was carried out using a scale from 0 to 100. 100 means no emergence of the plants, or complete destruction of at least the aerial moieties, and 0 means no damage, or normal course of growth. A good herbicidal activity is given at values of at least 70 and a very good herbicidal activity is given at values of at least 85.
# (§5) The herbicidal activity of the substituted pyridine compounds I-2 and I-13 according to this invention was tested in comparison with the corresponding pyrazine compounds Nos. C-11 and C-19 disclosed on page 48 of WO 2010/130970 (not of the invention). These comparative experiments were performed at an application rate of 0.25 kg/ha in a post-emergence treatment by following the same procedure as described above in the Use Examples. The results of Comparative Examples 1 and 2 are indicated below in Tables II and III.
# [1] = tested on: ECHCG (Echinocloa crus-galli)
# From the text: as §1, §2, §3, §4, §5
# [2] = tested on: ALOMY (Alopercurus myosuroides)
# From the text: as §1, §2, §3, §4, §5
# [3] = tested on: BRSNW (Brassica napus (winter))
# From the text: as §1, §2, §3, §4, §5
# [4] = tested on: CHEAL (Chenopodium album)
# From the text: as §1, §2, §3, §4, §5
Compound,herbicidal activity against AVEFA (AVEFA (Avena fatua)),herbicidal activity against ECHGG [1],herbicidal activity against ALOMY [2],herbicidal activity against BRSNW [3],herbicidal activity against CHEAL [4]
"O=S1(=O)Cc2cccnc2C(O)=C1c1ccccc1C(F)(F)F [I-2, 6,6-Dioxo-7-(2-trifluoromethyl-phenyl)-5,6-dihydro-thiopyrano[4,3-b]pyridin-8-ol]",very good (a very good herbicidal activity is given at values of at least 85),very good (a very good herbicidal activity is given at values of at least 85),very good (a very good herbicidal activity is given at values of at least 85),–,–
O=S1(=O)Cc2nccnc2C(O)=C1c1c(Cl)cccc1Cl [reference compound],–,less than good,–,good (A good herbicidal activity is given at values of at least 70),less than good
"CC(C)(C)C(=O)OC1=C(c2ccccc2C(F)(F)F)S(=O)(=O)Cc2cccnc21 [I-8, 2,2-Dimethyl-propionic acid 6,6-dioxo-7-(2-trifluoromethyl-phenyl)-5,6-dihydro-thiopyrano[4,3-b]pyridin-8-yl ester]",–,–,good (A good herbicidal activity is given at values of at least 70),–,–
O=S1(=O)Cc2cccnc2C(O)=C1c1c(Cl)cccc1Cl [I-13],–,very good (a very good herbicidal activity is given at values of at least 85),–,very good (a very good herbicidal activity is given at values of at least 85),very good (a very good herbicidal activity is given at values of at least 85)
O=S1(=O)Cc2nccnc2C(O)=C1c1ccccc1C(F)(F)F [reference compound],less than good,less than good,good (A good herbicidal activity is given at values of at least 70),–,–
